Measured values from ChEMBL document CHEMBL1201862, “PubChem BioAssay data set” (2004).
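The compound was tested at five concentrations on cells cultured in 96-well plates, with a 48-hour exposure period. GI50 marks 50% less growth.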 Activity calls are given as the source filed them. Cut-off read from the data, not from the text of the source: active = GI50 up to about 1.1 µM and inactive = higher.

Legend:
Experiment in all cases: NCI tumour cell line growth inhibition, 48 h
[1] = tested on: K562
[2] = tested on: MDA-MB-435
[3] = tested on: HCT-15
[4] = tested on: UO-31
[5] = tested on: HCT-116
[6] = tested on: SW-620
[7] = tested on: Malme-3M
[8] = tested on: HCC 2998
[9] = tested on: A549
[10] = tested on: Hs-578T
[11] = tested on: RPMI-8226
[12] = tested on: OVCAR-8
[13] = tested on: HOP-92
[14] = tested on: LOX IMVI
[15] = tested on: OVCAR-5
[16] = tested on: BT-549
[17] = tested on: DU-145
[18] = tested on: SK-MEL-5
[19] = tested on: SK-MEL-2
[20] = tested on: RXF 393
[21] = tested on: M14
[22] = tested on: NCI-H23
[23] = tested on: KM12
[24] = tested on: PC-3
[25] = tested on: IGROV-1
[26] = tested on: OVCAR-3
[27] = tested on: 786-0
[28] = tested on: A498
[29] = tested on: NCI-H226
[30] = tested on: UACC-62
[31] = tested on: SK-MEL-28
[32] = tested on: MCF7
[33] = tested on: CCRF-CEM
[34] = tested on: MDA-N
[35] = tested on: TK-10
[36] = tested on: MDA-MB-231
[37] = tested on: NCI-H522
[38] = tested on: UACC-257
[39] = tested on: U-251
[40] = tested on: EKVX
[41] = tested on: HL-60
[42] = tested on: OVCAR-4
[43] = tested on: SN12C
[44] = tested on: COLO 205
[45] = tested on: ACHN
[46] = tested on: NCI/ADR-RES
[47] = tested on: SNB-75
[48] = tested on: T47D
[49] = tested on: MOLT-4
[50] = tested on: SF-295
[51] = tested on: SF-268
[52] = tested on: SR
[53] = tested on: NCI-H460
[54] = tested on: CAKI-1
[55] = tested on: SNB-19
[56] = tested on: SF-539
[57] = tested on: HOP-62
[58] = tested on: HT-29

`CCCCC(=O)c1c(O)ccc2c(C)cc(=O)oc12` was tested, and the GI50 [1] was > 100 µM (inactive), the GI50 [2] was > 100 µM (inactive) and the GI50 [3] was 50.4 µM. The GI50 [4] was 24.8 µM (inactive), the GI50 [5] was > 100 µM (inactive) and the GI50 [6] was > 100 µM (inactive). For the same compound, the GI50 [7] was 39.9 µM (inactive), the GI50 [8] was 45.8 µM (inactive) and the GI50 [9] was 73.3 µM (inactive). For the same compound, the GI50 [10] was 29 µM (inactive), the GI50 [11] was 52 µM (inactive) and the GI50 [12] was > 100 µM (inactive). For the same compound, the GI50 [13] was 36.3 µM (inactive), the GI50 [14] was 93.8 µM (inactive) and the GI50 [15] was > 100 µM (inactive). The GI50 [16] was 37.6 µM (inactive), the GI50 [17] was 64.9 µM (inactive) and the GI50 [18] was 53.5 µM (inactive). For the same compound, the GI50 [19] was 3.14 µM (inactive), the GI50 [20] was 49.1 µM (inactive) and the GI50 [21] was > 100 µM (inactive). For the same compound, the GI50 [22] was 99.8 µM (inactive), the GI50 [23] was > 100 µM (inactive) and the GI50 [24] was > 100 µM (inactive). For the same compound, the GI50 [25] was 95.5 µM (inactive), the GI50 [26] was > 100 µM (inactive) and the GI50 [27] was > 100 µM (inactive). For the same compound, the GI50 [28] was 97.7 µM (inactive), the GI50 [29] was > 100 µM (inactive) and the GI50 [30] was > 100 µM (inactive). For the same compound, the GI50 [31] was > 100 µM (inactive), the GI50 [32] was 76.2 µM (inactive) and the GI50 [33] was 82.2 µM (inactive). For the same compound, the GI50 [34] was > 100 µM (inactive), the GI50 [35] was > 100 µM (inactive) and the GI50 [36] was 67.8 µM (inactive). For the same compound, the GI50 [37] was 58.2 µM (inactive), the GI50 [38] was > 100 µM (inactive) and the GI50 [39] was > 100 µM (inactive). For the same compound, the GI50 [40] was 89.1 µM (inactive), the GI50 [41] was > 100 µM (inactive) and the GI50 [42] was 69.8 µM (inactive). The GI50 [43] was > 100 µM (inactive), the GI50 [44] was > 100 µM (inactive) and the GI50 [45] was 96.6 µM (inactive). For the same compound, the GI50 [46] was 55.7 µM (inactive), the GI50 [47] was > 100 µM (inactive) and the GI50 [48] was 14.8 µM (inactive). For the same compound, the GI50 [49] was 77.1 µM (inactive), the GI50 [50] was > 100 µM (inactive) and the GI50 [51] was > 100 µM (inactive). The GI50 [52] was 40.7 µM (inactive), the GI50 [53] was 53.1 µM (inactive) and the GI50 [54] was 68.9 µM (inactive). The GI50 [55] was > 100 µM (inactive), the GI50 [56] was > 100 µM (inactive) and the GI50 [57] was > 100 µM (inactive). The GI50 [58] was > 100 µM (inactive).
